In brackets after ≈: the same amount, converted by molar mass.
Legend:
Type in all cases: cell-based
[1] = system: A2058 (human metastatic melanoma); test: MTS cell proliferation/viability assay; conditions: 72 h
Description: (§1) The human cancer cell line HCT116 (human colorectal adenocarcinoma), HeLa (human cervical adenocarcinoma), Jurkat (human leukemic T cell lymphoma), and MDA-MB-231 (human mammary gland adenocarcinoma, triple-negative) were cultured in RPMI 1640 medium (Biosera, Kansas City, MO, USA). MCF-7 (human breast adenocarcinoma), A2058 (human metastatic melanoma), PANC-1 (human pancreatic adenocarcinoma), and NIH 3T3 (murine fibroblasts) cell lines were maintained in a growth medium consisting of high glucose Dulbecco’s Modified Eagle Medium with sodium pyruvate (Biosera, Kansas City, MO, USA). MCF-10A cell line (human mammary gland epithelial cells) was maintained in a growth medium consisting of high glucose DMEM F12 Medium (Biosera, Kansas City, MO, USA) + Suppl. (insulin, EGF-[…], HC-hydrocortisone, choleratoxin all Sigma, Steinheim, Germany). The growth medium was supplemented with a 10% fetal bovine serum, penicillin (100 IU/mL), and streptomycin (100 μg/mL) (all Invitrogen, Carlsbad, CA, USA), and cells were maintained in an atmosphere containing 5% CO2 in humidified air at 37 °C. Cell viability, estimated by trypan exclusion, was greater than 95% before each experiment.
(§2) The metabolic activity colorimetric assay (MTS) was used to determine the effects of CA (c = 10–300 µM) and compounds CAP 6, CAP 8, CAP 10, and CAP 12 (c = 1–100 µM) on the metabolic activity of several cell lines. After 72 h of incubation, 10 µL of MTS (Promega, Madison, WI, USA) was added to each well according to the CellTiter 96® AQueous One Solution Cell Proliferation Assay protocol. After a minimum of 1 h incubation, the absorbance was measured at 490 nm using the automated Cytation^TM 3 Cell Imaging Multi-Mode Reader (Biotek, Winooski, VT, USA). The absorbance of the control wells was taken as 1.0 (100%), and the results were expressed as a fold of the control. All experiments were performed in triplicate. Ideal predictive IC50 values were calculated from MTS analyses-based concentration concentration-dependent trends.

[2] = system: HCT116 (human colorectal adenocarcinoma); test: MTS cell proliferation/viability assay; conditions: HCT-116, 72 h
Description: as §1, §2

[3] = system: HeLa (human cervical adenocarcinoma); test: MTS cell proliferation/viability assay; conditions: 72 h
Description: as §1, §2

[4] = system: Jurkat (human leukemic T cell lymphoma); test: MTS cell proliferation/viability assay; conditions: 72 h
Description: as §1, §2

[5] = system: MCF-7 (human breast adenocarcinoma); test: MTS cell proliferation/viability assay; conditions: MCF7, MCF-7, MTS, 72 h
Description: as §1, §2

[6] = system: MDA-MB-231 (human mammary gland adenocarcinoma); test: MTS cell proliferation/viability assay; conditions: MDA-MB-231, MTS, 72 h
Description: as §1, §2

[7] = system: PANC-1 (human pancreatic adenocarcinoma); test: MTS cell proliferation/viability assay; conditions: PANC-1, MTS, 72 h
Description: as §1, §2

[8] = system: tested cancer cell lines; test: MTS assay, span over the tested cell lines; conditions: Homo sapiens, 72 h
Description: as §1, §2

[9] = system: Enterococcus faecalis CCM 4224; test: Broth microdilution MIC and MBC; conditions: for MIC: CCM4224, E. faecalis CCM 4224; for MBC: CCM4224, E. faecalis CCM 4224, inactivating 99.9% of inoculum
Description: (§3) The antimicrobial activity of caffeic acid and its semi-synthetic derivates was tested against Gram-positive (Staphylococcus aureus CCM 4750, methicillin-resistant; Staphylococcus aureus CCM 4223, methicillin-susceptible; Enterococcus faecalis CCM 4224) and Gram-negative bacteria (Pseudomonas aeruginosa CCM 3955; Escherichia coli CCM 3954; Klebsiella pneumoniae CCM 4415; Proteus mirabilis CCM 7188), and one strain of a yeast Candida albicans (CCM 8267). Microbial strains were purchased from the Czech Collection of Microorganisms, Brno, Czech Republic, and preserved in aliquots in cryoprotective media at −20 °C until the testing. Revival of cryoprotected bacteria took place by overnight cultivation on blood agar and an additional passage on blood agar. Minimal inhibitory concentrations (MIC) against bacteria were detected by broth microdilution test in sterile 96-well U-shaped microtiter plates (Roll s.a.s., Piove di Sacco, Italy) according to the EUCAST recommendations. The test was performed in 100 μL volumes in microtiter plate wells with a final bacterial concentration of 5 × 10^5 CFU·mL^−1. Antifungal activity testing was performed according to the EUCAST-recommended method for the determination of broth dilution minimum inhibitory concentrations of antifungal agents for yeasts, with some modifications. The final yeast concentration in the test wells was 10^4 CFU·mL^−1. The minimal bactericidal/fungicidal concentrations (MBC/MFC) were detected by point-inoculation of 5 μL aliquots from test wells without visible growth on solid agar media free of antimicrobials. Mueller–Hinton broth and agar were used for bacteria, and Sabouraud dextrose broth and agar for fungi (OXOID, Basingstoke, Hampshire, UK). The tested agents were dissolved in 50% ethanol, and serial dilutions were prepared in the test medium to obtain final concentrations ranging from 5000 to 5 μg·mL^−1, which corresponds to 27,753—54 μM for caffeic acid, 7251—14 μM for CAP 6, 6967—14 μM for CAP 8, 6705—13 μM for CAP 10 and 6462—13 μM for CAP 12. Wells with media free of bacteria served as sterility control and wells with bacteria without antimicrobial agents were used as growth control. The MIC was determined to be the lowest concentration of the antimicrobial agent inhibiting the growth of the tested microorganism, and the MBC/MFC was determined to be the lowest concentration, inactivating 99.9% of microbial inoculum. All tests were performed in three independent runs to exclude possible excessive values due to permissible measurement error.

[10] = system: Escherichia coli CCM 3954; test: Broth microdilution MIC and MBC; conditions: for MIC: CCM3954, E. coli CCM 3954; for MBC: CCM3954, E. coli CCM 3954, inactivating 99.9% of inoculum
Description: as §3

[11] = system: Klebsiella pneumoniae CCM 4415; test: Broth microdilution MIC and MBC; conditions: for MIC: CCM4415, K. pneumoniae CCM 4415; for MBC: CCM4415, K. pneumoniae CCM 4415, inactivating 99.9% of inoculum
Description: as §3

[12] = system: Proteus mirabilis CCM 7188; test: Broth microdilution MIC and MBC; conditions: for MIC: CCM7188, P. mirabilis CCM 7188; for MBC: CCM7188, P. mirabilis CCM 7188, inactivating 99.9% of inoculum
Description: as §3

[13] = system: Pseudomonas aeruginosa CCM 3955; test: Broth microdilution MIC and MBC; conditions: for MIC / MBC: Pseudomonas aeruginosa, CCM3955, P. aeruginosa CCM 3955; for MBC: inactivating 99.9% of inoculum
Description: as §3

[14] = system: S. aureus (MS) CCM 4223; test: Broth microdilution MIC and MBC; conditions: Staphylococcus aureus, CCM4223, S. aureus methicillin-susceptible CCM 4223; for MBC: inactivating 99.9% of inoculum
Description: as §3

[15] = system: Staphylococcus aureus (MR) CCM 4750; test: Broth microdilution MIC and MBC; conditions: for MIC: CCM4750, S. aureus methicillin-resistant CCM 4750; for MBC: CCM4750, S. aureus methicillin-resistant CCM 4750, inactivating 99.9% of inoculum
Description: as §3

Row | Compound | IC50 [1] [µM] | IC50 [2] [µM] | IC50 [3] [µM] | IC50 [5] [µM] | IC50 [6] [µM] | IC50 [7] [µM] | IC50 [8] [µM] | MIC [9] [µM] | MBC [9] [µM] | MIC [10] [µM] | MBC [10] [µM] | MIC [11] [µM] | MBC [11] [µM] | MIC [12] [µM] | MBC [12] [µM] | MIC [13] [µM] | MBC [13] [µM] | MIC [14] [µM] | MBC [14] [µM] | MIC [15] [µM] | other results
1 | O=C(O)C=Cc1ccc(O)c(O)c1 [CA, 3-(3,4-dihydroxyphenyl)-2-propenoic acid, reference compound] | > 300 | > 300 | > 300 | > 300 | > 300 | > 300 | > 300 | 13900 (≈ 2500 µg/mL) | 27800 (≈ 5000 µg/mL) | 6940 (≈ 1250 µg/mL) | 13900 (≈ 2500 µg/mL) | 6940 (≈ 1250 µg/mL) | 6940 (≈ 1250 µg/mL) | 6940 (≈ 1250 µg/mL) | 6940 (≈ 1250 µg/mL) | 3470 (≈ 625 µg/mL) | 3470 (≈ 625 µg/mL) | 6940 (≈ 1250 µg/mL) | 13900 (≈ 2500 µg/mL) | 6940 (≈ 1250 µg/mL) | IC50 [4]: > 300 µM; MIC/MBC ([13]; P. aeruginosa, corresponding to the μM value): 625 µg/mL (≈ 3.47 mM); MBC [15]: 13900 µM (≈ 2500 µg/mL)
2 | CC(=O)Oc1ccc(/C=C/C(=O)OCCCCCC[P+](c2ccccc2)(c2ccccc2)c2ccccc2)cc1OC(C)=O [CAP 6, P,P,P-triphenyl-6-{(2E)-3-[3,4-(diacetyloxy)penyl]prop-2-enoyloxy}hexane-1-phosphanium bromide] | 30.5 ± 1.5 | 31 ± 0.4 | 34 ± 1.8 | 44.5 ± 0.1 | 37 ± 0.3 | 98.8 ± 2.4 | 30.5 to 44.5 | 57 | 57 | 227 | 227 | 28 | 28 | 453 | 453 | 453 | 453 | 14 | 14 | 14 | IC50 [4]: 8.5 ± 0.2 µM; MBC [15]: 14 µM
3 | CC(=O)Oc1ccc(/C=C/C(=O)OCCCCCCCC[P+](c2ccccc2)(c2ccccc2)c2ccccc2)cc1OC(C)=O [CAP 8, P,P,P-triphenyl-8-{(2E)-3-[3,4-(diacetyloxy)penyl]prop-2-enoyloxy}okctane-1-phosphanium bromide] | 9.4 ± 0.3 | 8.3 ± 0.6 | 7.1 ± 0.3 | 48.7 ± 0.1 | 4.8 ± 0.5 | > 100 | 4.8 to 9.4 | 27 | 27 | 435 | 435 | 27 | 27 | 218 | 435 | 871 | 871 | 14 | 14 | 27 | IC50 [4]: 6.9 ± 0.3 µM; MBC [15]: 27 µM
4 | CC(=O)Oc1ccc(/C=C/C(=O)OCCCCCCCCCC[P+](c2ccccc2)(c2ccccc2)c2ccccc2)cc1OC(C)=O [CAP 10, P,P,P-triphenyl-10-{(2E)-3-[3,4-(diacetyloxy)penyl]prop-2-enoyloxy}decane-1-phosphanium bromide] | 9 ± 0.5 | 9.2 ± 0.3 | 8 ± 0.7 | 9.5 ± 0.2 | 4.9 ± 0.5 | 91.2 ± 2.6 | 0.9 to 9.5 | 26 | 26 | 419 | 419 | 105 | 105 | 210 | 419 | 838 | 676 | 13 | 13 | 13 | MBC [15]: 26 µM
5 | CC(=O)Oc1ccc(/C=C/C(=O)OCCCCCCCCCCCC[P+](c2ccccc2)(c2ccccc2)c2ccccc2)cc1OC(C)=O [CAP 12, P,P,P-triphenyl-12-{(2E)-3-[3,4-(diacetyloxy)penyl]prop-2-enoyloxy}dodecane-1-phosphanium bromide] | 9 ± 0.5 | 8.3 ± 0.6 | 3.3 ± 1.1 | 4.9 ± 0.7 | 3.5 ± 0.6 | > 100 | 0.9 to 9.5 | 25 | 25 | 808 | 808 | 404 | 404 | 404 | 404 | 404 | 808 | 50 | 50 | 25 | MBC [15]: 25 µM

Reference: publication PMC10817097, “Caffeic Acid Phosphanium Derivatives: Potential Selective Antitumor, Antimicrobial and Antiprotozoal Agents” (International Journal of Molecular Sciences, 2024)
